Results on 14 molecules are retold here after US20200078468A1, “NEUROTENSIN RECEPTOR BINDING CONJUGATES AND FORMULATIONS THEREOF” (priority 2016, published 2020).

For the test, the system named is SW48 (human colon cancer cells). In words: inhibition of SW48 cell proliferation (CellTiter Glo). To be noted: 72 hrs, read-out: SW-48 proliferation IC50. Type of test: cell-based. The method, then: Conjugates were assessed in an in vitro assay evaluating inhibition of cell proliferation. SW48 (human colon cancer cells, ATCC®), cells were plated in 96 well, flat-bottomed plates (Costar) at a concentration of 5,000 cells/well. Cells were then incubated at 37° C. with 5% CO2 for 24 hrs. After 24 hrs, cells were treated with 0.01% DMSO or compound. Compounds were added at a starting dose of 10 μM and three fold serial dilutions were done for a total often points. Following compound addition, cells were incubated at 37° C. with 5% CO2 for 72 hrs. Proliferation was measured by CellTiter Glo reagent using the standard protocol (Promega) and a Glomax multi+detection system (Promega). Percent proliferation inhibition was calculated using the following formula: % inhibition=(control−treatment)/control*100. Control is defined as vehicle alone. IC50 curves were generated using the nonlinear regression analysis (four parameter) with GraphPad Prism 6.
Conjugates are assessed for receptor-dependent cytotoxicity by the difference between an NTSR1-targeting conjugate, and the corresponding conjugate with the same linker moiety and active agent where the NTSR1-targeting domain has been scrambled.
(In ATP-based viability assays light output follows the ATP content of the culture.)

Read-outs that look alike come from different tables or passages of the source. Numbered stars: 1 amine (or outer) side, 2 acyl side, 3 side chain; on linkers, the order of the positions; unused ones are H or OH. Bridge positions count the residues as written; N and C are the ends. Square brackets hold non-standard residues; d marks the D form. Peptide text beside a SMILES is read from it. I, II: the chains in the order shown. * marks the point of attachment. SN38(20-O) = CCc1c2c(nc3ccc(O)cc13)-c1cc3c(c(=O)n1C2)COC(=O)[C@@]3(CC)O*; Hexanoyl(6-succinimido-3yl) = O=C1CC([*:1])C(=O)N1CCCCCC(=O)[*:2]; NMeR = CN[C@@H](CCCNC(=N)N)C(=O)O; Pen = CC(C)(S)[C@H](N)C(=O)O; Tle = CC(C)(C)[C@H](N)C(=O)O

Take `CCc1c2c(nc3ccc(O)cc13)-c1cc3c(c(=O)n1C2)COC(=O)[C@@]3(CC)OC(=O)CNC(=O)CNC(=O)[C@H](CC(C)C)NC(=O)[C@H](Cc1ccccc1)NC(=O)CNC(=O)CCCCCN1C(=O)CC(SC(C)(C)[C@H](NC(C)=O)C(=O)N2CCC[C@H]2C(=O)N[C@@H](CCCNC(=N)N)C(=O)N[C@@H](CCCNC(=N)N)C(=O)N2CCC[C@H]2C(=O)N[C@@H](Cc2ccc(O)cc2)C(=O)N[C@H](C(=O)N[C@@H](CC(C)C)C(=O)O)C(C)(C)C)C1=O` (stereo partly drawn) [Compound 65] (I: Ac-[Pen]PRRPY[Tle]L-OH / II: GFLGG-{SN38(20-O)}; linker I:1-II:N via Hexanoyl(6-succinimido-3yl)): the IC50 (NTSR1 targeted compound) was found to be 800 nM. For the molecule `CCc1c2c(nc3ccc(O)cc13)-c1cc3c(c(=O)n1C2)COC(=O)[C@@]3(CC)OC(=O)CNC(=O)CNC(=O)[C@H](CC(C)C)NC(=O)[C@H](Cc1ccccc1)NC(=O)CNC(=O)CCCCCN1C(=O)CC(SC(C)(C)[C@H](NC(C)=O)C(=O)N2CCC[C@H]2C(=O)N[C@@H](CCCNC(=N)N)C(=O)N(C)[C@@H](CCCNC(=N)N)C(=O)N2CCC[C@H]2C(=O)N[C@@H](Cc2ccc(O)cc2)C(=O)N[C@H](C(=O)N[C@@H](CC(C)C)C(=O)O)C(C)(C)C)C1=O` (stereo partly drawn) [Compound 66] (I: Ac-[Pen]PR[NMeR]PY[Tle]L-OH / II: GFLGG-{SN38(20-O)}; linker I:1-II:N via Hexanoyl(6-succinimido-3yl)), the IC50 (NTSR1 targeted compound) amounted to 694 nM. Regarding `CCc1c2c(nc3ccc(O)cc13)-c1cc3c(c(=O)n1C2)COC(=O)[C@@]3(CC)OC(=O)CNC(=O)CNC(=O)[C@H](CC(C)C)NC(=O)[C@H](Cc1ccccc1)NC(=O)CNC(=O)CCCCCN1C(=O)CC(SC(C)(C)[C@H](NC(C)=O)C(=O)N2CCC[C@H]2C(=O)N(C)[C@@H](CCCNC(=N)N)C(=O)N[C@@H](CCCNC(=N)N)C(=O)N2CCC[C@H]2C(=O)N[C@@H](Cc2ccc(O)cc2)C(=O)N[C@H](C(=O)N[C@@H](CC(C)C)C(=O)O)C(C)(C)C)C1=O` (stereo partly drawn) [Compound 67] (I: Ac-[Pen]P[NMeR]RPY[Tle]L-OH / II: GFLGG-{SN38(20-O)}; linker I:1-II:N via Hexanoyl(6-succinimido-3yl)), the IC50 (NTSR1 targeted compound) is 816 nM. The same measure, in the same setting: the result for `CCc1c2c(nc3ccc(O)cc13)-c1cc3c(c(=O)n1C2)COC(=O)[C@@]3(CC)OC(=O)CNC(=O)CNC(=O)[C@H](CC(C)C)NC(=O)[C@H](Cc1ccccc1)NC(=O)CNC(=O)CCCCCN1C(=O)CC(SC(C)(C)[C@H](NC(C)=O)C(=O)N2CCC[C@H]2C(=O)N[C@@H](CCCCN)C(=O)N[C@@H](CCCNC(=N)N)C(=O)N2CCC[C@H]2C(=O)N[C@@H](Cc2ccc(O)cc2)C(=O)N[C@H](C(=O)N[C@@H](CC(C)C)C(=O)O)C(C)(C)C)C1=O` (stereo partly drawn) [Compound 68] (I: Ac-[Pen]PKRPY[Tle]L-OH / II: GFLGG-{SN38(20-O)}; linker I:1-II:N via Hexanoyl(6-succinimido-3yl)) reads 800 nM. `CC(=O)N[C@H](C(=O)N1CCC[C@H]1C(=O)N[C@@H](CC(C)C)C(=O)N1CCC[C@H]1C(=O)N[C@@H](CCCNC(=N)N)C(=O)N[C@H](C(=O)N[C@@H](CCCNC(=N)N)C(=O)N[C@@H](Cc1ccc(O)cc1)C(=O)O)C(C)(C)C)C(C)(C)SC1CC(=O)N(CCCCCC(=O)N[C@@H](Cc2ccccc2)C(=O)N[C@@H](CC(C)C)B2O[C@@H]3[C@@H]4C[C@H](C[C@]3(C)O2)C4(C)C)C1=O` (some centres unmarked) [Compound 69]: the IC50 (NTSR1 scrambled compound) was > 10000 nM. For `CO[C@H]1C(=O)[C@]2(C)[C@@H](OC)C[C@H]3OC[C@@]3(OC(C)=O)[C@H]2[C@H](OC(=O)c2ccccc2)[C@]2(O)C[C@H](OC(=O)[C@H](OC(=O)CCCCCN3C(=O)CC(SC(C)(C)[C@H](NC(C)=O)C(=O)N4CCC[C@H]4C(=O)N[C@@H](CC(C)C)C(=O)N4CCC[C@H]4C(=O)N[C@@H](CCCNC(=N)N)C(=O)N[C@H](C(=O)N[C@@H](CCCNC(=N)N)C(=O)N[C@@H](Cc4ccc(O)cc4)C(=O)O)C(C)(C)C)C3=O)[C@@H](NC(=O)OC(C)(C)C)c3ccccc3)C(C)=C1C2(C)C` (some centres unmarked) [Compound 72], the IC50 (NTSR1 scrambled compound) was determined as 368 nM. `CO[C@H]1C(=O)[C@]2(C)[C@@H](OC)C[C@H]3OC[C@@]3(OC(C)=O)[C@H]2[C@H](OC(=O)c2ccccc2)[C@]2(O)C[C@H](OC(=O)[C@H](OC(=O)N(C)CCN(C)C(=O)OCc3ccc(NC(=O)[C@H](CCCNC(N)=O)NC(=O)[C@@H](NC(=O)CCCCCN4C(=O)CC(SC(C)(C)[C@H](NC(C)=O)C(=O)N5CCC[C@H]5C(=O)N[C@@H](CC(C)C)C(=O)N5CCC[C@H]5C(=O)N[C@@H](CCCNC(=N)N)C(=O)N[C@H](C(=O)N[C@@H](CCCNC(=N)N)C(=O)N[C@@H](Cc5ccc(O)cc5)C(=O)O)C(C)(C)C)C4=O)C(C)C)cc3)[C@@H](NC(=O)OC(C)(C)C)c3ccccc3)C(C)=C1C2(C)C` (some centres unmarked) [Compound 73]: the IC50 (NTSR1 scrambled compound) came out at 2620 nM. With `CO[C@H]1C(=O)[C@]2(C)[C@@H](OC)C[C@H]3OC[C@@]3(OC(C)=O)[C@H]2[C@H](OC(=O)c2ccccc2)[C@]2(O)C[C@H](OC(=O)[C@H](OC(=O)N(C)CCCNC(=O)CNC(=O)[C@H](CC(C)C)NC(=O)[C@H](Cc3ccccc3)NC(=O)CNC(=O)CCCCCN3C(=O)CC(SCCC(=O)NCCCC[C@H](NC(C)=O)C(=O)N4CCC[C@H]4C(=O)N[C@@H](CC(C)C)C(=O)N4CCC[C@H]4C(=O)N(C)[C@@H](CCCNC(=N)N)C(=O)N[C@H](C(=O)N[C@@H](CCCNC(=N)N)C(=O)N[C@@H](Cc4ccc(O)cc4)C(=O)O)C(C)(C)C)C3=O)[C@@H](NC(=O)OC(C)(C)C)c3ccccc3)C(C)=C1C2(C)C` (some centres unmarked) [Compound 74], the IC50 (NTSR1 scrambled compound) is > 10000 nM. `COc1cc2cc(c1Cl)N(C)C(=O)C[C@H](OC(=O)[C@H](C)N(C)C(=O)CCSC1CC(=O)N(CCCNC(=O)CNC(=O)[C@H](CC(C)C)NC(=O)[C@H](Cc3ccccc3)NC(=O)CNC(=O)CCCCCN3C(=O)CC(SCCC(=O)NCCCC[C@H](NC(C)=O)C(=O)N4CCC[C@H]4C(=O)N[C@@H](CC(C)C)C(=O)N4CCC[C@H]4C(=O)N(C)[C@@H](CCCNC(=N)N)C(=O)N[C@H](C(=O)N[C@@H](CCCNC(=N)N)C(=O)N[C@@H](Cc4ccc(O)cc4)C(=O)O)C(C)(C)C)C3=O)C1=O)[C@]1(C)O[C@H]1[C@H](C)[C@@H]1C[C@@](O)(NC(=O)O1)[C@H](OC)/C=C/C=C(\C)C2` (some centres unmarked) [Compound 82]: the IC50 (NTSR1 scrambled compound) came out at 435 nM.

Consider `COc1cc2cc(c1Cl)N(C)C(=O)C[C@H](OC(=O)[C@H](C)N(C)C(=O)CCSC1CC(=O)N(CCCNC(=O)CNC(=O)[C@H](CC(C)C)NC(=O)[C@H](Cc3ccccc3)NC(=O)CNC(=O)CCCCCN3C(=O)CC(SCCC(=O)NCCOCCOCCC(=O)NCCCC[C@H](NC(C)=O)C(=O)N4CCC[C@H]4C(=O)N[C@@H](CC(C)C)C(=O)N4CCC[C@H]4C(=O)N(C)[C@@H](CCCNC(=N)N)C(=O)N[C@H](C(=O)N[C@@H](CCCNC(=N)N)C(=O)N[C@@H](Cc4ccc(O)cc4)C(=O)O)C(C)(C)C)C3=O)C1=O)[C@]1(C)O[C@H]1[C@H](C)[C@@H]1C[C@@](O)(NC(=O)O1)[C@H](OC)/C=C/C=C(\C)C2` (some centres unmarked) [Compound 83], for which, for the setting “NTSR1 scrambled compound”, the IC50 amounted to 1830 nM. As to `COc1cc2cc(c1Cl)N(C)C(=O)C[C@H](OC(=O)[C@H](C)N(C)C(=O)CCSC1CC(=O)N(CCCNC(=O)CNC(=O)[C@H](CC(C)C)NC(=O)[C@H](Cc3ccccc3)NC(=O)CNC(=O)CCCCCN3C(=O)CC(SCCC(=O)NCCOCCOCCOCCOCCC(=O)NCCCC[C@H](NC(C)=O)C(=O)N4CCC[C@H]4C(=O)N[C@@H](CC(C)C)C(=O)N4CCC[C@H]4C(=O)N(C)[C@@H](CCCNC(=N)N)C(=O)N[C@H](C(=O)N[C@@H](CCCNC(=N)N)C(=O)N[C@@H](Cc4ccc(O)cc4)C(=O)O)C(C)(C)C)C3=O)C1=O)[C@]1(C)O[C@H]1[C@H](C)[C@@H]1C[C@@](O)(NC(=O)O1)[C@H](OC)/C=C/C=C(\C)C2` (some centres unmarked) [Compound 84], the IC50 (NTSR1 scrambled compound) worked out at 48.5 nM. Same read-out and setting: the result for `COc1cc2cc(c1Cl)N(C)C(=O)C[C@H](OC(=O)[C@H](C)N(C)C(=O)CCSC1CC(=O)N(CCCNC(=O)CNC(=O)[C@H](CC(C)C)NC(=O)[C@H](Cc3ccccc3)NC(=O)CNC(=O)CCCCCN3C(=O)CC(SCCC(=O)NCCOCCOCCOCCOCCOCCOCCOCCOCCC(=O)NCCCC[C@H](NC(C)=O)C(=O)N4CCC[C@H]4C(=O)N[C@@H](CC(C)C)C(=O)N4CCC[C@H]4C(=O)N(C)[C@@H](CCCNC(=N)N)C(=O)N[C@H](C(=O)N[C@@H](CCCNC(=N)N)C(=O)N[C@@H](Cc4ccc(O)cc4)C(=O)O)C(C)(C)C)C3=O)C1=O)[C@]1(C)O[C@H]1[C@H](C)[C@@H]1C[C@@](O)(NC(=O)O1)[C@H](OC)/C=C/C=C(\C)C2` (some centres unmarked) [Compound 85] reads 59.5 nM; that for `COc1cccc2c1C(=O)c1c(O)c3c(c(O)c1C2=O)C[C@@](O)(C(=O)CO)C[C@@H]3O[C@H]1C[C@H](NC(=O)OCCSSC(C)(C)[C@H](NC(C)=O)C(=O)N2CCC[C@H]2C(=O)N[C@@H](CC(C)C)C(=O)N2CCC[C@H]2C(=O)N[C@@H](CCCNC(=N)N)C(=O)N[C@H](C(=O)N[C@@H](CCCNC(=N)N)C(=O)N[C@@H](Cc2ccc(O)cc2)C(=O)O)C(C)(C)C)[C@H](O)[C@H](C)O1` [Compound 88], 1940 nM.

With `COc1cccc2c1C(=O)c1c(O)c3c(c(O)c1C2=O)C[C@@](O)(C(=O)CO)C[C@@H]3O[C@H]1C[C@H](NC(=O)OCc2ccc(NC(=O)[C@H](CCCNC(N)=O)NC(=O)[C@@H](NC(=O)CCCCCN3C(=O)CC(SC(C)(C)[C@H](NC(C)=O)C(=O)N4CCC[C@H]4C(=O)N[C@@H](CC(C)C)C(=O)N4CCC[C@H]4C(=O)N[C@@H](CCCNC(=N)N)C(=O)N[C@H](C(=O)N[C@@H](CCCNC(=N)N)C(=O)N[C@@H](Cc4ccc(O)cc4)C(=O)O)C(C)(C)C)C3=O)C(C)C)cc2)[C@H](O)[C@H](C)O1` (some centres unmarked) [Compound 89], the IC50 (NTSR1 scrambled compound) was determined as 2580 nM.
